# Test results: patent publication US11110091B2, “Modulators of toll-like receptors” (Gilead Sciences, Inc., priority 2008, dated 2021)
# Tested on: human Peripheral Blood Mononuclear Cell (PMBC)
# Assay: PBMC assay: cytokine (IFN-α) stimulation at 24 hours
# Assay type: cell-based
# Settings: lowest concentration stimulating IFN-α production at least 3-fold over background, Luminex, read-out: IFN MEC
# Protocol: Assays were conducted to determine cytokine stimulation at 24 hours from human Peripheral Blood Mononuclear Cell (PMBC) using the compounds of the present invention. The assays were run in duplicate, with 8-point, half-log dilution curves. The compounds of the present invention were diluted from 10 mM DMSO solution. Cell supernatants are assayed directly for IFNα and 1:10 dilution for TNFα. The assays were performed in a similar fashion as described in Bioorg. […] Specifically, cryo-preserved PBMCs were thawed and seeded 96 well plates with 750,000 cells/well in 190 μL/well cell media. The PBMCs were then incubated for 1 hour at 37° C. at 5% CO2. Then, the compounds of the present invention were added in 10 μL cell media at 8 point, half-log dilution titration. The plates were incubated at 37° C. and 5% CO2 for 24 hours and then spinned at 1200 rpm for 10 min, which was followed by collecting supernatant and storing the same at −80° C. Cytokine secretion was assayed with Luminex and Upstate multi-plex kits, using a Luminex analysis instrument. The IFN-α MEC value for a compound was the lowest concentration at which the compound stimulated IFN-α production at least 3-fold over the background as determined using the assay method above.
row,SMILES,minimal effective concentration [µM]
1,CCC[C@H](C)Oc1nc(N)c2c(n1)N(Cc1ccc(C)nc1)CC(=O)N2 [Example 116],> 0.03
2,"Nc1nc(OCC2CC2)nc2c1NC(=O)CN2Cc1cccc(CN2CCCC2)c1 [Example 5, 4-amino-2-{(cyclopropyl)methoxy}-8-[3′-(pyrrolidin-1″-ylmethyl)-benzyl]-5,6,7,8-tetrahydropteridin-6-one]",> 0.03
3,CCOc1nc(N)c2c(n1)N(Cc1cccc(CN3CCCC3)c1)CC(=O)N2 [Example 62],> 0.03
4,CCC[C@@H](C)Oc1nc(N)c2c(n1)N(Cc1ccc(CN3CCCC3)cc1)CC(=O)N2 [Example 60],> 0.03
5,Nc1nc(N2CCCC2)nc2c1NC(=O)CN2Cc1cccc(CN2CCCC2)c1 [Example 43],≤ 0.03
6,CCCCOc1nc(N)c2c(n1)N(CCC1CCN(Cc3ccccc3)CC1)CC(=O)N2 [Example 108],> 0.03
7,COCCOc1nc(N)c2c(n1)N(Cc1cccc(CN3CCCC3)c1)CC(=O)N2 [Example 2],≤ 0.03
8,Nc1nc(N2CCC2)nc2c1NC(=O)CN2Cc1cccc(CN2CCCC2)c1 [Example 42],> 0.03
9,Cc1ccc(CN2CC(=O)Nc3c(N)nc(OCC4CCOC4)nc32)cn1 (stereo not shown) [Example 115],> 0.03
10,"CCCCOc1nc(N)c2c(n1)N(Cc1cccc(CN3CCCC3)c1)CC(=O)N2 [Example 49, 4-amino-2-n-butoxy-8-[3′-(pyrrolidin-1″-ylmethyl)-benzyl]-5,6,7,8-tetrahydropteridin-6-one]",≤ 0.03
11,CCOP(=O)(CCNc1nc(N)c2c(n1)N(Cc1cccc(CN3CCCC3)c1)CC(=O)N2)OCC [Example 45],> 0.03
12,COCCNc1nc(N)c2c(n1)N(Cc1cccc(CN3CCCC3)c1)CC(=O)N2 [Example 33],> 0.03
13,"Nc1nc(OCC2CCCC2)nc2c1NC(=O)CN2Cc1cccc(CN2CCCC2)c1 [Example 8, 4-amino-2-{(cyclopentyl)methoxy}-8-[3′-(pyrrolidin-1″-ylmethyl)-benzyl]-5,6,7,8-tetrahydropteridin-6-one]",> 0.03
14,CCCCNc1nc(N)c2c(n1)N(Cc1cccc(CN3CCCC3)c1)CC(=O)N2 [Example 32],> 0.03
15,CC(C)(O)CCOc1nc(N)c2c(n1)N(Cc1cccc(CN3CCCC3)c1)CC(=O)N2 [Example 28],> 0.03
16,CCCN(C)C(=O)c1nc(N)c2c(n1)N(Cc1cccc(CN3CCCC3)c1)CC(=O)N2 [Example 81],> 0.03
17,"CCCCOc1nc(N)c2c(n1)N(Cc1ccc(CN3CCCC3)cc1)CC(=O)N2 [Example 4, 4-amino-2-n-butoxy-8-[4′-(pyrrolidin-1″-ylmethyl)-benzyl]-5,6,7,8-tetrahydropteridin-6-one]",≤ 0.03
18,CCCCOc1nc(N)c2c(n1)N(Cc1ccnc(N3CCOCC3)c1)CC(=O)N2 [Example 66],> 0.03
19,CCCCOc1nc(N)c2c(n1)N(Cc1cccc(CN3CCN(C)CC3)c1)CC(=O)N2 [Example 79],≤ 0.03
20,Nc1nc(O[C@@H]2C[C@@H]3C[C@@H]3C2)nc2c1NC(=O)CN2Cc1cccc(CN2CCCC2)c1 [Example 68],≤ 0.03
21,CCCCOc1nc(N)c2c(n1)N(Cc1ccc3c(c1)CNCC3)CC(=O)N2 [Example 51],≤ 0.03

row,SMILES,minimal effective concentration [µM]
1,COC[C@H](C)Nc1nc(N)c2c(n1)N(Cc1cccc(CN3CCCC3)c1)CC(=O)N2 [Example 37],≤ 0.03
2,CCCCOc1nc(N)c2c(n1)N(Cc1ccc(CN3CCCC3)cc1)C(C)C(=O)N2 (stereo not shown) [Example 65],≤ 0.03
3,Nc1nc(OCc2cccnc2)nc2c1NC(=O)CN2Cc1cccc(CN2CCCC2)c1 [Example 16],> 0.03
4,COCCOc1nc(N)c2c(n1)N(Cc1ccc(-c3ccc(CN4CCCC4)cc3)cc1)CC(=O)N2 [Example 98],≤ 0.03
5,COC[C@H](C)Oc1nc(N)c2c(n1)N(Cc1cccc(CN3CCCC3)c1)CC(=O)N2 [Example 87],≤ 0.03
6,CCCCOc1nc(N)c2c(n1)N(Cc1ccccc1CN1CCCC1)CC(=O)N2 [Example 57],> 0.03
7,CCC(CC)Oc1nc(N)c2c(n1)N(Cc1cccc(CN3CCCC3)c1)CC(=O)N2 [Example 25],≤ 0.03
8,CC(C)COc1nc(N)c2c(n1)N(Cc1cccc(CN3CCCC3)c1)CC(=O)N2 [Example 10],> 0.03
9,CCCCOc1nc(N)c2c(n1)N(Cc1ccc3c(c1)CN(CC)CC3)CC(=O)N2 [Example 52],≤ 0.03
10,CS(=O)(=O)CCOc1nc(N)c2c(n1)N(Cc1cccc(CN3CCCC3)c1)CC(=O)N2 [Example 20],> 0.03
11,CS(=O)(=O)CCNc1nc(N)c2c(n1)N(Cc1cccc(CN3CCCC3)c1)CC(=O)N2 [Example 44],> 0.03
12,CCCCOc1nc(N)c2c(n1)N(Cc1ccc3c(c1)CN(C(C)C)CC3)CC(=O)N2 [Example 71],≤ 0.03
13,CCCCOc1nc(N)c2c(n1)N(Cc1ccc(C)nc1)CC(=O)N2 [Example 111],> 0.03
14,CCCCOc1nc(N)c2c(n1)N(C(C)c1ccc(CN3CCCC3)cc1)CC(=O)N2 (stereo not shown) [Example 74],> 0.03
15,CCCCSc1nc(N)c2c(n1)N(Cc1cccc(CN3CCCC3)c1)CC(=O)N2 [Example 26],> 0.03
16,COP(=O)(CCOc1nc(N)c2c(n1)N(Cc1cccc(CN3CCCC3)c1)CC(=O)N2)OC [Example 18],> 0.03
17,CCCCOc1nc(N)c2c(n1)N(CCCN(Cc1ccccc1)C(=O)CN1CCN(C)CC1)CC(=O)N2 [Example 110],≤ 0.03
18,Nc1nc(OCC2CCCO2)nc2c1NC(=O)CN2Cc1ccnc(N2CCOCC2)c1 (stereo not shown) [Example 67],> 0.03
19,CCOC(=O)CN(Cc1cccc(CN2CCCC2)c1)c1nc(O[C@@H](C)COC)nc(N)c1[N+](=O)[O-] [Compound 86],≤ 0.03
20,CCCCOc1nc(N)c2[nH]c(=O)c(=O)n(Cc3ccc(C)nc3)c2n1 [Example 112],> 0.03
21,CCCCOc1nc(N)c2c(n1)N(Cc1cccc(CNc3ccccn3)c1)CC(=O)N2 [Example 80],> 0.03

row,SMILES,minimal effective concentration [µM]
1,Nc1nc(OCCCC(F)(F)F)nc2c1NC(=O)CN2Cc1cccc(CN2CCCC2)c1 [Example 56],≤ 0.03
2,CCCCOc1nc(N)c2c(n1)N(Cc1ccc3c(c1)CN(CC1CCC1)CC3)CC(=O)N2 [Example 72],≤ 0.03
3,CCCCOc1nc(N)c2[nH]c(=O)c(=O)n(Cc3ccc(-c4ccc(CN5CCCC5)cc4)cc3)c2n1 [Example 101],> 0.03
4,CCCN(C)C(=O)c1nc(N)c2[nH]c(=O)c(=O)n(Cc3ccc(CN4CCCC4)cc3)c2n1 [Example 93],≤ 0.03
5,COC[C@@H](C)Oc1nc(N)c2c(n1)N(Cc1cccc(CN3CCCC3)c1)CC(=O)N2 [Example 88],≤ 0.03
6,CCCCOc1nc(N)c2[nH]c(=O)c(=O)n(Cc3ccccc3CN3CCCC3)c2n1 [Example 89],≤ 0.03
7,"Nc1nc(OCC2CCC2)nc2c1NC(=O)CN2Cc1cccc(CN2CCCC2)c1 [Example 7, 4-amino-2-{(cyclobutyl)methoxy}-8-[3′-(pyrrolidin-1″-ylmethyl)-benzyl]-5,6,7,8-tetrahydropteridin-6-one]",> 0.03
8,CCCCOc1nc(N)c2c(n1)N(Cc1ccc3c(c1)CCN(CC1CC1)C3)CC(=O)N2 [Example 106],> 0.03
9,CCCCNc1nc(N)c2[nH]c(=O)c(=O)n(Cc3cccc(CN4CCCC4)c3)c2n1 [Example 90],> 0.03
10,Nc1nc(OCC2CCOC2)nc2c1NC(=O)CN2Cc1cccc(CN2CCCC2)c1 (stereo not shown) [Example 17],> 0.03
11,CCCCOc1nc(N)c2c(n1)N(Cc1cccc(CN3CCC(C(=O)OC)CC3)c1)CC(=O)N2 [Example 54],> 0.03
12,CCC[C@H](C)Oc1nc(N)c2c(n1)N(Cc1ccc(CN3CCCC3)cc1)CC(=O)N2 [Example 61],≤ 0.03
13,CCCCOc1nc(N)c2c(n1)N(Cc1ccc3c(c1)CCN(CC)C3)CC(=O)N2 [Example 104],≤ 0.03
14,Nc1nc(OC2CCCC2)nc2c1NC(=O)CN2Cc1ccnc(N2CCOCC2)c1 [Example 69],> 0.03
15,CC(C)CCOc1nc(N)c2c(n1)N(Cc1cccc(CN3CCCC3)c1)CC(=O)N2 [Example 11],> 0.03
16,Nc1nc(OCC2CCOCC2)nc2c1NC(=O)CN2Cc1cccc(CN2CCCC2)c1 [Example 30],≤ 0.03
17,CCCCOc1nc(N)c2c(n1)N(Cc1ccc3c(c1)CCN(C(C)C)C3)CC(=O)N2 [Example 105],≤ 0.03
18,Nc1nc(NC2CCC2)nc2c1NC(=O)CN2Cc1cccc(CN2CCCC2)c1 [Example 40],≤ 0.03
19,CCCC(C)Oc1nc(N)c2c(n1)N(Cc1ccc(C)nc1)CC(=O)N2 (stereo not shown) [Example 109],> 0.03
